Measurements taken from PubChem BioAssay (NCI).
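Growth conditions: 96-well plates. Treatment: test compound, 48 hours, 5 concentrations. Analysis: linear interpolation between bracketing concentrations; unreached endpoints set to highest concentration. GI50: concentration for 50% inhibition of growth. The concentration for full growth arrest is given as TGI.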

How the values were obtained:
Test in all cases: DTP human tumour cell line panel, 48 h; in the data active = GI50 below about 0.43 µM; inactive = the rest
786-0 renal = tested on: 786-0 renal
A498 renal = tested on: A498 renal
A549 NSCLC = tested on: A549 NSCLC
ACHN renal = tested on: ACHN renal
CAKI-1 renal = tested on: CAKI-1 renal
CCRF-CEM leukemia = tested on: CCRF-CEM leukemia
COLO 205 colon = tested on: COLO 205 colon
DU-145 prostate = tested on: DU-145 prostate
EKVX NSCLC = tested on: EKVX NSCLC
HCC-2998 colon = tested on: HCC-2998 colon
HCT-116 colon = tested on: HCT-116 colon
HCT-15 colon = tested on: HCT-15 colon
HL-60(TB) leukemia = tested on: HL-60(TB) leukemia
HOP-62 NSCLC = tested on: HOP-62 NSCLC
HOP-92 NSCLC = tested on: HOP-92 NSCLC
HS 578T breast = tested on: HS 578T breast
IGROV1 ovarian = tested on: IGROV1 ovarian
K-562 leukemia = tested on: K-562 leukemia
KM12 colon = tested on: KM12 colon
LOX IMVI melanoma = tested on: LOX IMVI melanoma
M14 melanoma = tested on: M14 melanoma
MALME-3M melanoma = tested on: MALME-3M melanoma
MCF7 breast = tested on: MCF7 breast
MDA-MB-231 breast = tested on: MDA-MB-231 breast
MDA-MB-435 = tested on: MDA-MB-435
MOLT-4 leukemia = tested on: MOLT-4 leukemia
NCI-H226 lung = tested on: NCI-H226 lung
NCI-H23 lung = tested on: NCI-H23 lung
NCI-H460 lung = tested on: NCI-H460 lung
NCI/ADR-RES ovarian = tested on: NCI/ADR-RES ovarian
OVCAR-3 ovarian = tested on: OVCAR-3 ovarian
OVCAR-4 ovarian = tested on: OVCAR-4 ovarian
OVCAR-5 ovarian = tested on: OVCAR-5 ovarian
OVCAR-8 ovarian = tested on: OVCAR-8 ovarian
PC-3 prostate = tested on: PC-3 prostate
RPMI-8226 leukemia = tested on: RPMI-8226 leukemia
RXF 393 renal = tested on: RXF 393 renal
SF-268 CNS = tested on: SF-268 CNS
SF-295 CNS = tested on: SF-295 CNS
SF-539 CNS = tested on: SF-539 CNS
SK-MEL-28 melanoma = tested on: SK-MEL-28 melanoma
SK-MEL-5 melanoma = tested on: SK-MEL-5 melanoma
SK-OV-3 ovarian = tested on: SK-OV-3 ovarian
SNB-19 CNS = tested on: SNB-19 CNS
SNB-75 CNS = tested on: SNB-75 CNS
SR leukemia = tested on: SR leukemia
SW-620 colon = tested on: SW-620 colon
T-47D breast = tested on: T-47D breast
U251 CNS = tested on: U251 CNS
UACC-257 melanoma = tested on: UACC-257 melanoma
UACC-62 melanoma = tested on: UACC-62 melanoma
UO-31 renal = tested on: UO-31 renal
BT-549 breast = tested on: BT-549 breast
HT29 colon = tested on: HT29 colon
NCI-H522 lung = tested on: NCI-H522 lung
SK-MEL-2 melanoma = tested on: SK-MEL-2 melanoma
SN12C renal = tested on: SN12C renal

Cc1ccc(NC(=O)NCCCOc2ccc(N3C(N)=NC(N)=NC3(C)C)cc2Cl)cc1S(=O)(=O)F
> 100 µM: TGI (786-0 renal) | TGI (A498 renal) | TGI (A549 NSCLC) | TGI (ACHN renal) | TGI (CAKI-1 renal) | TGI (CCRF-CEM leukemia) | TGI (DU-145 prostate) | TGI (EKVX NSCLC) | TGI (HCC-2998 colon) | TGI (HCT-116 colon) | TGI (HCT-15 colon) | TGI (HL-60(TB) leukemia) | TGI (HOP-62 NSCLC) | TGI (HS 578T breast) | TGI (IGROV1 ovarian) | TGI (K-562 leukemia) | TGI (KM12 colon) | TGI (LOX IMVI melanoma) | TGI (M14 melanoma) | TGI (MCF7 breast) | TGI (MDA-MB-231 breast) | TGI (MDA-MB-435) | TGI (MOLT-4 leukemia) | TGI (NCI-H226 lung) | TGI (NCI-H23 lung) | TGI (NCI-H460 lung) | TGI (NCI/ADR-RES ovarian) | TGI (OVCAR-3 ovarian) | TGI (OVCAR-4 ovarian) | TGI (OVCAR-5 ovarian) | TGI (OVCAR-8 ovarian) | TGI (PC-3 prostate) | TGI (RPMI-8226 leukemia) | TGI (RXF 393 renal) | TGI (SF-268 CNS) | TGI (SF-295 CNS) | TGI (SK-MEL-28 melanoma) | TGI (SK-OV-3 ovarian) | TGI (SNB-19 CNS) | TGI (SR leukemia) | TGI (SW-620 colon) | TGI (T-47D breast) | TGI (U251 CNS) | TGI (UACC-257 melanoma) | TGI (UACC-62 melanoma) | TGI (UO-31 renal)
51.4 µM: TGI (SNB-75 CNS)
81 µM: TGI (MALME-3M melanoma)
81.2 µM: TGI (SF-539 CNS)
inactive: GI50 (786-0 renal) 7.36 µM | GI50 (A498 renal) 75.5 µM | GI50 (A549 NSCLC) 2.83 µM | GI50 (ACHN renal) 49.3 µM | GI50 (CAKI-1 renal) 70 µM | GI50 (CCRF-CEM leukemia) 9.69 µM | GI50 (COLO 205 colon) 13.6 µM | GI50 (DU-145 prostate) 6.04 µM | GI50 (EKVX NSCLC) 10.9 µM | GI50 (HCC-2998 colon) 21.5 µM | GI50 (HCT-116 colon) 2.22 µM | GI50 (HCT-15 colon) > 100 µM | GI50 (HL-60(TB) leukemia) 0.775 µM | GI50 (HOP-62 NSCLC) 9.46 µM | GI50 (HOP-92 NSCLC) 18.9 µM | GI50 (HS 578T breast) 16.7 µM | GI50 (IGROV1 ovarian) 0.525 µM | GI50 (K-562 leukemia) 0.677 µM | GI50 (KM12 colon) 6.29 µM | GI50 (LOX IMVI melanoma) 4.19 µM | GI50 (M14 melanoma) 7.81 µM | GI50 (MALME-3M melanoma) 12 µM | GI50 (MCF7 breast) 4.93 µM | GI50 (MDA-MB-231 breast) 11.4 µM | GI50 (MDA-MB-435) 4.46 µM | GI50 (MOLT-4 leukemia) 9.26 µM | GI50 (NCI-H226 lung) 58.1 µM | GI50 (NCI-H23 lung) 5 µM | GI50 (NCI-H460 lung) 1.68 µM | GI50 (NCI/ADR-RES ovarian) > 100 µM | GI50 (OVCAR-3 ovarian) 8.6 µM | GI50 (OVCAR-4 ovarian) 15.1 µM | GI50 (OVCAR-5 ovarian) 6.44 µM | GI50 (OVCAR-8 ovarian) 7.85 µM | GI50 (PC-3 prostate) 1.49 µM | GI50 (RPMI-8226 leukemia) 60.7 µM | GI50 (RXF 393 renal) 98.3 µM | GI50 (SF-268 CNS) 0.916 µM | GI50 (SF-295 CNS) 26.5 µM | GI50 (SF-539 CNS) 8.84 µM | GI50 (SK-MEL-28 melanoma) 11.6 µM | GI50 (SK-MEL-5 melanoma) 1.88 µM | GI50 (SK-OV-3 ovarian) 43.6 µM | GI50 (SNB-19 CNS) 6.04 µM | GI50 (SNB-75 CNS) 8.62 µM | GI50 (SR leukemia) 0.724 µM | GI50 (SW-620 colon) 2.03 µM | GI50 (T-47D breast) 19.8 µM | GI50 (U251 CNS) 4.04 µM | GI50 (UACC-257 melanoma) 10.9 µM | GI50 (UACC-62 melanoma) 4.05 µM | GI50 (UO-31 renal) > 100 µM
21.5 µM: TGI (SK-MEL-5 melanoma)
75.1 µM: TGI (HOP-92 NSCLC)
95.7 µM: TGI (COLO 205 colon)

CC(=O)Nc1ccc2[nH]c(C(=O)N3CC(CCl)c4c3cc(N)c3ccccc43)cc2c1 (centres undefined)
0.0767 µM: TGI (MDA-MB-435)
< 0.027 µM: TGI (OVCAR-8 ovarian)
3.48 µM: TGI (KM12 colon)
> 100 µM: TGI (IGROV1 ovarian) | TGI (K-562 leukemia) | TGI (SW-620 colon)
2.18 µM: TGI (SK-OV-3 ovarian)
< 0.0238 µM: TGI (NCI-H226 lung)
< 0.0446 µM: TGI (MOLT-4 leukemia)
< 0.0309 µM: TGI (HT29 colon)
2.01 µM: TGI (MCF7 breast)
< 0.0157 µM: TGI (UACC-62 melanoma)
0.0761 µM: TGI (SK-MEL-28 melanoma)
2.16 µM: TGI (HCT-15 colon)
0.0851 µM: TGI (EKVX NSCLC)
< 0.01 µM: TGI (CAKI-1 renal) | TGI (HCC-2998 colon) | TGI (HCT-116 colon) | TGI (HS 578T breast) | TGI (NCI-H522 lung) | TGI (SF-268 CNS) | TGI (UACC-257 melanoma)
12.6 µM: TGI (OVCAR-3 ovarian)
11.6 µM: TGI (NCI-H460 lung)
0.259 µM: TGI (SNB-19 CNS)
0.335 µM: TGI (BT-549 breast)
1.08 µM: TGI (OVCAR-5 ovarian)
0.0298 µM: TGI (SR leukemia)
< 0.0192 µM: TGI (SK-MEL-2 melanoma)
0.0267 µM: TGI (SK-MEL-5 melanoma)
< 0.0262 µM: TGI (HOP-62 NSCLC)
< 0.0255 µM: TGI (LOX IMVI melanoma)
0.0554 µM: TGI (A498 renal)
0.0751 µM: TGI (SN12C renal)
0.0534 µM: TGI (NCI/ADR-RES ovarian)
